The test system of assay [1] is Phytophthora infestans. The assay can be described thus: whole plant or invertebrate. As to conditions: Phytophthora infestans, in Solanum lycopersicum, topical, read-out: Test F control value class. In kind it is in vivo.
Assay [2] has as its system Plasmopara viticola. The assay can be described thus: Test Example G: Downy mildew on vine. As to conditions: Plasmopara viticola, topical, read-out: Test G control value class.
Assay [3] concerns Magnaporthe grisea. The assay can be described thus: whole plant or invertebrate. As to conditions: Pyricularia oryzae, in Oryza sativa, read-out: Test A control value class. The class given is in vivo.
For assay [4], the system named is Colletotrichum orbiculare. In words: Test Example H: Anthracnose on cucumber. As to conditions: Colletotrichum orbiculare, in Cucumis sativus, topical, read-out: Test H control value class.
Assay [5] relates to Puccinia recondita. In words: Test Example E: Brown rust on wheat. In kind it is in vivo. As to conditions: Puccinia recondita, topical; Brown rust on wheat; class of control value; read-out: Test E control value class.
Assay [6] relates to Blumeria graminis f. sp. hordei. The assay can be described thus: Test Example D: Powdery mildew on barley. As to conditions: Blumeria graminis, in Hordeum vulgare, topical, read-out: Test D control value class.
The test system of assay [7] is Alternaia brassicicola. The assay can be described thus: Test Example C: Alternaria sooty spot on cabbage. In kind it is in vivo. As to conditions: Brassica oleracea, topical; Alternaria sooty spot on cabbage; class of control value; read-out: Test C control value class. From the text: Seeds of a test plant (cabbage variety: Shikidori) were planted and cultivated until the cotyledons extended.
<Control Value> Control value=100{1−(n/3)}

Assay [8] has as its system Botrytis cinerea. The assay can be described thus: Test Example B: Gray mold on tomato. As to conditions: Botrytis cinerea, in Solanum lycopersicum, topical, read-out: Test B control value class.

The values that follow come from patent publication US11147272B2, “Pyridone compounds and agricultural and horticultural fungicides comprising the same as active ingredients” (MITSUI CHEMICALS AGRO, INC., priority 2017, dated 2021).

For `CCn1c(-c2c(F)cccc2F)c(C=O)cc(Cl)c1=O` [Compound No. 20, 5-chloro-2-(2,6-difluorophenyl)-1-ethyl-6-oxo-1,6-dihydropyridine-3-carb aldehyde], the pest or weed control at 250 µg/mL in assay [1] was below 50%; in assay [3], above 50%; in assay [5] it was above 50%; in assay [6] it was below 50%; in assay [7] it was below 50%; in assay [8], above 50%. The pest or weed control at 250 ppm in assay [2] was above 50%; in assay [4], below 50%.

For the compound `CCn1c(-c2c(F)cccc2F)c(C(Br)Br)cc(Cl)c1=O` [Compound No. 21, 3-chloro-5-(dibromomethyl)-6-(2,6-difluorophenyl)-1-ethylpyridin-2(1H)-one], the pest or weed control at 250 µg/mL was below 50% in assay [1]; below 50% in assay [3]; above 50% in assay [5]; above 50% in assay [6]; below 50% in assay [7]; above 50% in assay [8]. In addition, the pest or weed control at 250 ppm is above 50% in assay [2] and below 50% in assay [4].

As for `CCC(O)c1cc(Cl)c(=O)n(CC)c1-c1c(F)cccc1F` (stereo not shown) [Compound No. 24, 3-chloro-6-(2,6-difluorophenyl)-1-ethyl-5-(1-hydroxypropyl)pyridin-2(1H)-one], the pest or weed control at 250 µg/mL is below 50% in assay [1]; above 50% in assay [3]; above 50% in assay [5]; above 50% in assay [6]; above 50% in assay [7]; above 50% in assay [8]. For the same compound, the pest or weed control at 250 ppm in assay [2] is below 50%; in assay [4] it was above 50%.

On to `CCC(OC)c1cc(Cl)c(=O)n(CC)c1-c1c(F)cccc1F` (stereo not shown) [Compound No. 25, 3-chloro-6-(2,6-difluorophenyl)-1-ethyl-5-(1-methoxypropyl)pyridin-2(1H)-one], for which the pest or weed control at 250 µg/mL in assay [1] was below 50%; in assay [3], above 50%; in assay [5], above 50%; in assay [6], above 50%; in assay [7] it was above 50%; in assay [8], above 50%. For the same compound, the pest or weed control at 250 ppm in assay [2] and in assay [4] was above 50% in each case.

As to `CCC(=O)c1cc(Cl)c(=O)n(CC)c1-c1c(F)cccc1F` [Compound No. 26, 3-chloro-6-(2,6-difluorophenyl)-1-ethyl-5-propionylpyridin-2(1H)-one], the pest or weed control at 250 µg/mL in assay [1] was below 50%; in assay [3] it was above 50%; in assay [5], above 50%; in assay [6], above 50%; in assay [7] it was above 50%; in assay [8], above 50%. For the same compound, the pest or weed control at 250 ppm in assay [2] and in assay [4] was above 50% each time.

Consider `CCn1c(-c2c(F)cccc2F)c(C(C)(O)CC)cc(Cl)c1=O` (stereo not shown) [Compound No. 27, 3-chloro-6-(2,6-difluorophenyl)-1-ethyl-5-(2-hydroxybutan-2-yl)pyridin-2(1H)-one], for which the pest or weed control at 250 µg/mL in assay [1] was below 50%; in assay [3] it was above 50%; in assay [5] it was above 50%; in assay [6], above 50%; in assay [7], above 50%; in assay [8] it was above 50%. Also, the pest or weed control at 250 ppm in assay [2] and in assay [4] was above 50% each time.

Regarding `CCn1c(-c2c(F)cccc2F)c(C(C)(CC)OC)cc(Cl)c1=O` (stereo not shown) [Compound No. 29, 3-chloro-6-(2,6-difluorophenyl)-1-ethyl-5-(2-methoxybutan-2-yl)pyridin-2(1H)-one], the pest or weed control at 250 µg/mL in assay [1] was below 50%; in assay [3] it was above 50%; in assay [5], above 50%; in assay [6], above 50%; in assay [7], above 50%; in assay [8] it was above 50%. For the same compound, the pest or weed control at 250 ppm in assay [2] and in assay [4] was above 50% in each case.

With `CCn1c(-c2c(F)cccc2F)c(C(C)(F)CC)cc(Cl)c1=O` (stereo not shown) [Compound No. 30, 3-chloro-6-(2,6-difluorophenyl)-1-ethyl-5-(2-fluorobutan-2-yl)pyridin-2(1H)-one], the pest or weed control at 250 µg/mL in assay [1] is below 50%; in assay [3], above 50%; in assay [5] it was above 50%; in assay [6], above 50%; in assay [7], above 50%; in assay [8] it was above 50%. Also, the pest or weed control at 250 ppm in assay [2] and in assay [4] was above 50% throughout.

Regarding `CCn1c(-c2c(F)cccc2F)c(C(O)C(C)C)cc(Cl)c1=O` (stereo not shown) [Compound No. 53, 3-chloro-6-(2,6-difluorophenyl)-1-ethyl-5-(1-hydroxy-2-methylpropyl)pyridin-2(1H)-one], the pest or weed control at 250 µg/mL was below 50% in assay [1]; above 50% in assay [3]; above 50% in assay [5]; above 50% in assay [6]; above 50% in assay [7]; above 50% in assay [8]. For the same compound, the pest or weed control at 250 ppm in assay [2] and in assay [4] was above 50% throughout.

Turning to `CCn1c(-c2c(F)cc(F)cc2F)c(CN(C)OC)cc(Cl)c1=O` [Compound No. 89, 3-chloro-1-ethyl-5-((methoxy(methyl)amino)methyl)-6-(2,4,6-trifluorophenyl)pyridin-2(1H)-one], the pest or weed control at 250 µg/mL was below 50% in assay [1]; above 50% in assay [3]; above 50% in assay [5]; above 50% in assay [6]; above 50% in assay [7]; above 50% in assay [8]. Also, the pest or weed control at 250 ppm in assay [2] is below 50%; in assay [4], above 50%.

`CCOc1cc(F)c(-c2c(CN(C)OC)cc(Cl)c(=O)n2CC)c(F)c1` [Compound No. 93, 3-chloro-6-(4-ethoxy-2,6-difluorophenyl)-1-ethyl-5-((methoxy(methyl)amino)methyl)pyridin-2(1H)-one]: the pest or weed control at 250 µg/mL in assay [1] is below 50%; in assay [3], above 50%; in assay [5], above 50%; in assay [6], above 50%; in assay [7], above 50%; in assay [8], above 50%. Further, the pest or weed control at 250 ppm in assay [2] and in assay [4] was above 50% each time.

`CCn1c(-c2ccc(F)cc2Cl)c(CC(C)C)ccc1=O` [Compound No. 98, 6-(2-chloro-4-fluorophenyl)-1-ethyl-5-isobutylpyridin-2(1H)-one]: the pest or weed control at 250 µg/mL in assay [1] is below 50%; in assay [3], above 50%; in assay [5], above 50%; in assay [6] it was above 50%; in assay [7] it was above 50%; in assay [8], above 50%. Further, the pest or weed control at 250 ppm in assay [2] and in assay [4] was below 50% in each case.

As for `CCn1c(-c2ccc(F)cc2Cl)c(CC(C)C)cc(Cl)c1=O` [Compound No. 99, 3-chloro-6-(2-chloro-4-fluorophenyl)-1-ethyl-5-isobutylpyridin-2(1H)-one], the pest or weed control at 250 µg/mL in assay [1], in assay [3], in assay [5], in assay [6], in assay [7] and in assay [8] was above 50% throughout. The pest or weed control at 250 ppm in assay [2] and in assay [4] was above 50% throughout.

Take `CCn1c(-c2c(F)cccc2F)c(C(C)(O)C(C)C)cc(Cl)c1=O` (stereo not shown) [Compound No. 183, 3-chloro-6-(2,6-difluorophenyl)-1-ethyl-5-(2-hydroxy-3-methylbutan-2-yl)pyridin-2(1H)-one]: the pest or weed control at 250 µg/mL in assay [1], in assay [3], in assay [5], in assay [6], in assay [7] and in assay [8] was above 50% in each case. The pest or weed control at 250 ppm in assay [2] and in assay [4] was above 50% each time.
